“And” between values parts separate entries of the source, which are not always exact repeats. Equal entries are not always repeated. Where two headings read alike, the source gives them in different places.

In one series the test system is hRBC. The series is described as follows: In vitro hemolytic activity on healthy erythrocytes. To be noted: cultures of hRBC and PiRBC, summary of Table 3. The class given is cell-based. The protocol:
(§1) For positive and negative controls, 1% Triton X-100 and PBS were added, respectively. After this period, the plates were centrifuged and supernatants transferred to another plate. Supernatant absorbance at 450 nm was assessed in a multi-mode microplate reader (Triad, Dynex Technologies, Chantilly, VA, USA) and values were treated using the following equation (1):(1) % Hemolysis=Abs−Abs(negative control)/Abs(positive control)−Abs(negative control)

The test system of series [1] is P. falciparum W2. To be noted: cited from earlier work.
Series [2] relates to P. falciparum 3D7. To be noted: cited from earlier work.
Series [3] concerns P. falciparum 3D7. The series is classed as cell-based. The conditions noted are these: P. falciparum 3D7 (CQ-sensitive), 48 h; read-out: IC50 ± SD (n = 3). The protocol: These second-generation conjugates (synthesis routes depicted in Scheme 2; Scheme 3) were evaluated in vitro, alongside the commercial reference drug, CQ (1), their parent building blocks, TP10 and Cq (4), and first-generation conjugate 5a, regarding their ability to inhibit growth of blood-stage parasites of the CQ-sensitive P. falciparum 3D7 strain (Table 3). The primaquine analogues of Cq conjugates 5a and 14, respectively, PQ-C4-TP10 (3a) and TP10-S-S-PQ (Figure 2, 14′), were also included for comparison; the synthesis of these conjugates, 3a and 14′, has been reported elsewhere. Of note, substantial hemolysis was detected upon erythrocyte exposure to some of the test conjugates, particularly at the higher concentrations tested. In view of this, emolysis assays were also conducted on cultures of both hRBC and PiRBC (Table 3).
P. falciparum 3D7 strain (chloroquine and mefloquine susceptible) was continuously cultured as previously described. Parasitemia was monitored daily by microscopic examination of Giemsa (MERCK, Sigma-Aldrich) stained thin blood smears.
Synchronized ring-stage P. falciparum (3% hematocrit, 1% parasitemia) were incubated in a microtiter plate for 48 h in the presence of two-fold serial dilutions of TP10 and derived conjugates 11–15, in the 10–10000 nM concentration range. Cultures incubated with three-fold serial dilutions of chloroquine bisphosphate, and also of its analogue 4, in the 0.1–8000 nM concentration range, were included for comparison. Culture without test compounds was also added to the microtiter plate, as negative control. After incubation, 100 μL of a solution of SYBR Green (Thermo Fisher; SG; 0.001% v/v in PBS) was added to each well and plates incubated for another 60 min under standard culture conditions. Plates were then centrifuged at 2500 rpm for 2 min, the supernatant was discarded, and cells were re-suspended in 100 μL of PBS. Fluorescence was collected in a multi-mode microplate reader (Triad, Dynex Technologies) with excitation at 485 nm and emission at 535 nm. Fluorescence values were normalized (to take into account the normal growth of the parasite) and then plotted against logC. IC50 were determined using GraphPad Prism 6.

A short description of series [4]: In vitro hemolytic activity on healthy erythrocytes. The class given is cell-based. To be noted: healthy erythrocytes (hRBC); 10 µM, 1 h, hRBC only; dash with footnote c = hemolysis not detected; read-out: % hemolysis at 10 µM ± SD (n = 3), hRBC. The protocol: as §1
Series [5] can be described thus: In vitro hemolytic activity on Plasmodium-infected erythrocyte cultures. The series is classed as cell-based. The conditions noted are these: cultures with 3% PiRBC, dash with footnote c = hemolysis not detected, read-out: % hemolysis at 10 µM ± SD (n = 3), PiRBC. The protocol: as §1
Series [6] deals with P. falciparum W2. The class given is cell-based. The conditions noted are these: P. falciparum W2 (CQ-resistant), 48 h, n = 3. The procedure: All conjugates and their respective parent CPP (Table 1), were screened in vitro for their antiplasmodial activity, using the CQ-resistant P. falciparum W2 strain. The primaquine analogue to 5a, i.e., conjugate 3 where the CPP is TP10, PQ-C4-TP10 (3a), was also included in the study for comparison.
Synchronized ring-stage P. falciparum parasites (W2 strain) were incubated with test compounds for 48 h in Roswell Park Memorial Institute (RPMI) 1640 medium containing 10% human serum or 0.5% Albumax serum substitute. Parasites were then fixed with 1% formaldehyde in phosphate-buffered saline (PBS), pH 7.4, for […] at RT and labeled with YOYO-1 (1 nM; molecular probes) in 0.1% Triton X-100 in PBS. Parasitemias were determined by flow cytometry, from dot plots (forward scatter versus fluorescence). For 50% inhibitory concentration (IC50) determinations, dose-response studies were performed, with the values normalized to percent control activity, and IC50s were calculated using GraphPad Prism, with data fitted by nonlinear regression.

For the compound `CCN(CC)CCCC(C)Nc1ccnc2cc(Cl)ccc12` (stereo not drawn) [compound 1, chloroquine], the “hemolytic activity (in words)” value in the series on hRBC is “not hemolytic”. Besides, the half-maximal inhibitory concentration (IC50) is 0.699 µM in the series on P. falciparum W2 [1] and 0.021 µM in the series on P. falciparum 3D7 [2].
Turning to `CC[C@H](C)[C@H](NC(=O)[C@H](CCCCN)NC(=O)[C@H](CCCCN)NC(=O)[C@H](C)NC(=O)[C@H](CC(C)C)NC(=O)[C@H](C)NC(=O)[C@H](C)NC(=O)[C@H](CC(C)C)NC(=O)[C@H](C)NC(=O)[C@H](CCCCN)NC(=O)[C@H](CC(C)C)NC(=O)[C@H](CC(N)=O)NC(=O)[C@@H](NC(=O)[C@H](CCCCN)NC(=O)CNC(=O)[C@H](CC(C)C)NC(=O)[C@H](CC(C)C)NC(=O)[C@H](Cc1ccc(O)cc1)NC(=O)CNC(=O)[C@H](C)N)[C@@H](C)CC)C(=O)N[C@@H](CC(C)C)C(=O)N[C@@H](CSSC[C@H](N)C(=O)NCCCCNc1ccnc2cc(Cl)ccc12)C(N)=O` [compound 14], the IC50 in the series with P. falciparum 3D7 [3] is 2.3 ± 0.4 µM. The hemolysis at 1 h, 10 µM in series [4] was 18.2 ± 0.8%; in series [5], 7 ± 1%.
In the case of `CC[C@H](C)[C@H](NC(=O)[C@H](CCCCN)NC(=O)[C@H](CCCCN)NC(=O)[C@H](C)NC(=O)[C@H](CC(C)C)NC(=O)[C@H](C)NC(=O)[C@H](C)NC(=O)[C@H](CC(C)C)NC(=O)[C@H](C)NC(=O)[C@H](CCCCN)NC(=O)[C@H](CC(C)C)NC(=O)[C@H](CC(N)=O)NC(=O)[C@@H](NC(=O)[C@H](CCCCN)NC(=O)CNC(=O)[C@H](CC(C)C)NC(=O)[C@H](CC(C)C)NC(=O)[C@H](Cc1ccc(O)cc1)NC(=O)CNC(=O)[C@H](C)N)[C@@H](C)CC)C(=O)N[C@@H](CC(C)C)C(N)=O` [TP10], the IC50 in the series on P. falciparum W2 [6] is 5.53 µM and 5.5 µM; with P. falciparum 3D7 [3] it was 1.9 ± 0.5 µM. Further, the results for the hemolysis at 1 h, 10 µM in series [4] and in series [5] were 3.7 ± 0.1% and 3.4 ± 0.2%, respectively. In addition, in the series with hRBC, the “hemolytic activity (in words)” value is given as “only slightly hemolytic”.
As for `CC[C@H](C)[C@H](NC(=O)[C@H](CCCCN)NC(=O)[C@H](CCCCN)NC(=O)[C@H](C)NC(=O)[C@H](CC(C)C)NC(=O)[C@H](C)NC(=O)[C@H](C)NC(=O)[C@H](CC(C)C)NC(=O)[C@H](C)NC(=O)[C@H](CCCCN)NC(=O)[C@H](CC(C)C)NC(=O)[C@H](CC(N)=O)NC(=O)[C@@H](NC(=O)[C@H](CCCCN)NC(=O)CNC(=O)[C@H](CC(C)C)NC(=O)[C@H](CC(C)C)NC(=O)[C@H](Cc1ccc(O)cc1)NC(=O)CNC(=O)[C@H](C)NC(=O)[C@@H](N)CSSC[C@H](N)C(=O)NCCCCNc1ccnc2cc(Cl)ccc12)[C@@H](C)CC)C(=O)N[C@@H](CC(C)C)C(N)=O` [compound 12], the IC50 in the series with P. falciparum 3D7 [3] was 1 ± 0.3 µM. The hemolysis at 1 h, 10 µM came to 8.5 ± 0.5% in series [4] and 2 ± 0.3% in series [5].
Regarding `CC[C@H](C)[C@H](NC(=O)[C@H](CCCCN)NC(=O)[C@H](CCCCN)NC(=O)[C@H](C)NC(=O)[C@H](CC(C)C)NC(=O)[C@H](C)NC(=O)[C@H](C)NC(=O)[C@H](CC(C)C)NC(=O)[C@H](C)NC(=O)[C@H](CCCCN)NC(=O)[C@H](CC(C)C)NC(=O)[C@H](CC(N)=O)NC(=O)[C@@H](NC(=O)[C@H](CCCCN)NC(=O)CNC(=O)[C@H](CC(C)C)NC(=O)[C@H](CC(C)C)NC(=O)[C@H](Cc1ccc(O)cc1)NC(=O)CNC(=O)[C@H](C)NC(=O)CCCCCNC(=O)CCC(=O)NCCCCNc1ccnc2cc(Cl)ccc12)[C@@H](C)CC)C(=O)N[C@@H](CC(C)C)C(N)=O` [compound 10], in the series with P. falciparum 3D7 [3], the IC50 was determined as 0.8 ± 0.3 µM. Further, the hemolysis at 1 h, 10 µM in series [4] worked out at 38 ± 2%; in series [5], 19 ± 1%.
In the same order, the values of `CC[C@H](C)[C@H](NC(=O)[C@H](CCCCN)NC(=O)[C@H](CCCCN)NC(=O)[C@H](C)NC(=O)[C@H](CC(C)C)NC(=O)[C@H](C)NC(=O)[C@H](C)NC(=O)[C@H](CC(C)C)NC(=O)[C@H](C)NC(=O)[C@H](CCCCN)NC(=O)[C@H](CC(C)C)NC(=O)[C@H](CC(N)=O)NC(=O)[C@@H](NC(=O)[C@H](CCCCN)NC(=O)CNC(=O)[C@H](CC(C)C)NC(=O)[C@H](CC(C)C)NC(=O)[C@H](Cc1ccc(O)cc1)NC(=O)CNC(=O)[C@H](C)NC(=O)[C@@H](N)Cc1cn(CCCCCC(=O)NCCCCNc2ccnc3cc(Cl)ccc23)nn1)[C@@H](C)CC)C(=O)N[C@@H](CC(C)C)C(N)=O` [compound 11] are 1.2 ± 0.2 µM, 23 ± 1% and 10.7 ± 0.1%.
Turning to “N-(7-Methylquinolin-4-yl)butane-1,4-diamine [compound 4]”, the IC50 in the series on P. falciparum 3D7 [3] amounted to 0.07 ± 0.02 µM. Further, the “hemolytic activity (in words)” value with hRBC is reported as “not hemolytic”.
As to `CC[C@H](C)[C@H](NC(=O)[C@H](CCCCNC(=O)CCC(=O)NCCCCNc1ccnc2cc(Cl)ccc12)NC(=O)[C@H](CCCCN)NC(=O)[C@H](C)NC(=O)[C@H](CC(C)C)NC(=O)[C@H](C)NC(=O)[C@H](C)NC(=O)[C@H](CC(C)C)NC(=O)[C@H](C)NC(=O)[C@H](CCCCN)NC(=O)[C@H](CC(C)C)NC(=O)[C@H](CC(N)=O)NC(=O)[C@@H](NC(=O)[C@H](CCCCN)NC(=O)CNC(=O)[C@H](CC(C)C)NC(=O)[C@H](CC(C)C)NC(=O)[C@H](Cc1ccc(O)cc1)NC(=O)CNC(=O)[C@H](C)N)[C@@H](C)CC)C(=O)N[C@@H](CC(C)C)C(N)=O` [compound 13], the figures for the hemolysis at 1 h, 10 µM in series [4] and in series [5] were 50 ± 2% and 41 ± 2%, respectively.
Turning to `CC[C@H](C)[C@H](NC(=O)[C@H](CCCCN)NC(=O)[C@H](CCCCN)NC(=O)[C@H](C)NC(=O)[C@H](CC(C)C)NC(=O)[C@H](C)NC(=O)[C@H](C)NC(=O)[C@H](CC(C)C)NC(=O)[C@H](C)NC(=O)[C@H](CCCCN)NC(=O)[C@H](CC(C)C)NC(=O)[C@H](CC(N)=O)NC(=O)[C@@H](NC(=O)[C@H](CCCCN)NC(=O)CNC(=O)[C@H](CC(C)C)NC(=O)[C@H](CC(C)C)NC(=O)[C@H](Cc1ccc(O)cc1)NC(=O)CNC(=O)[C@H](C)NC(=O)CCC(=O)NCCCCNc1ccnc2cc(Cl)ccc12)[C@@H](C)CC)C(=O)N[C@@H](CC(C)C)C(N)=O` [5a], the IC50 in the series on P. falciparum 3D7 [3] is 0.8 ± 0.1 µM. Also, the results for the hemolysis at 1 h, 10 µM in series [4] and in series [5] were 23 ± 1% and 6.5 ± 0.4%, respectively.

The record behind these values is article PMC6943437, “Coupling the Antimalarial Cell Penetrating Peptide TP10 to Classical Antimalarial Drugs Primaquine and Chloroquine Produces Strongly Hemolytic Conjugates” (Molecules, 2019).
